From US7259144B2, “Methods for diagnosing and treatment of hyperphosphatemic conditions using FGF20 polypeptides” (CuraGen Corporation, priority 2003, dated 2007)

Legend:
Caco2 cells [1] = test: Caco2 cell proliferation (3H thymidine incorporation) with FGF-20 and kinase inhibitors; assay type: cell-based; settings: inhibitor added 1 hr before FGF-20 (100 ng/ml), PD098059 1, 5, 20, 40 μM, SB203580 1, 10, 20 μM
Experimental: FIG. 7 depicts effect of kinase inhibitors in the proliferation of Caco2 cells. Caco2 cells were incubated with FGF-20 (100 ng/ml) in the presence of various concentrations (1, 5, 20 and 40 μM) of PD098059, inhibitor of MEK which is upstream of ERK or various concentrations (1, 10, 20 μM) of SB203580, inhibitor of p38 MAPK inhibitor.
In addition to the above results, MEK inhibitor PD098059 (1, 5, 20, and 40μM CALBIOCHEM, CA), and p38 MAPK inhibitor SB203580 (1,10,20 μM CALBIOCHEM, CA) were added to the Caco2 cell cultures 1 hr before FGF-20 treatment. Cellular proliferation was tested by standard 3H thymidine incorporation assay known in the art.

HT-29 cells = test: Expression of C-Fos and C-Jun in HT-29 cells with FGF-20; assay type: cell-based; settings: 100 ng/ml, 10, 30, 60 minutes
Experimental: (§1) FIG. 6 depicts Effect of FGF-20 on expression of kinases in intestinal epithelial cells. Caco2 cells were incubated with FGF-20 (100 ng/ml) for 10, 30, 60 minutes and expression of p-Elk-1, p-ATF-2 and p-PKC was analyzed. Similarly, HT-29 cells were incubated with FGF-20 (100 ng/ml) for 10, 30, 60 minutes and expression of C-Fos and C-Jun was analyzed.
(§2) MAPK-dependent mechanism may be involved in the regulation of phosphate uptake by FGF signaling. To test this hypothesis, various kinases were tested for their expression in the presence of 100 ng/ml of FGF-20, in Caco2 cells. […] In HT-29 cells, C-Fos and C-Jun were induced, when cultured with FGF-20 (FIG. 6).

[2] = Serum phosphate levels after CG53135-05 treatment, rat model; assay type: in vivo; settings: slow bolus i.v. once daily, 0.05, 5, 50 mg/kg, dose-dependent (FIG. 1)
Experimental: (§3) To evaluate the role of FGF20 in reduction of phosphate levels, two different animal models (rat and rhesus monkeys) were tested for serum phosphates following treatment with FGF20. Recombinant human FGF20 and the serum phosphate levels were measured. General protocols for the rat and Rhesus monkey models are outlined in the following Tables 1 (for the rat) and 2 (for the Rhesus monkey) below:
(§4) Both animal groups were dosed via a slow bolus intravenous injection in the tail vein, once daily for 14 days. The first day of dosing was designated as study day (“SD”) 1. Animals were dosed through SD 14.

Caco2 cells [3] = test: Expression of signal transducing kinases in Caco2 cells with FGF-20; assay type: cell-based
Experimental: FIG. 4 depicts effect of FGF20 (CG53135) in stimulation of kinases in Caco2 cells. Expression of signal transducing kinases was analyzed after incubation of Caco2 cells with FGF-20 (100 ng/ml) for different time points (10, 30, 60 mins).
as §1, §2

NIH 3T3 cells = test: Induction of DNA synthesis (BrdU incorporation) in NIH 3T3 cells; assay type: cell-based; settings: serum-starved NIH 3T3 cells; 18 h factor, 4 h BrdU incorporation
Experimental: Receptor Specificity NIH 3T3 cells were cultured in 96-well plates to approximately 100% confluence, washed and fed with DMEM without supplements (Life Technologies), and incubated for 24 h. Recombinant CG53135-01 or control protein was then added to the cells for 18 h. Control proteins used were aFGF (positive control) and platelet derived growth factor-BB (PDGFBB) (negative control). To analyze the effect of soluble FGFRs on CG53135-05 activity, recombinant CG53135-05, aFGF, or PDGF-BB (final concentrations of 10, 5 and 3 ng/mL, respectively), were mixed with soluble receptors (final concentrations of 0.2, 1 and 5 ug/mL), and incubated for 30 min at 37° C. prior to addition to serum-starved NIH 3T3 cells. Factor concentrations represent the amount of ligand needed to generate a half maximal BrdU response in NIH 3T3 cells. Soluble FGFRs were Fc chimeras of the following receptor forms (FGFR1β(IIIc); FGFR2β(IIIb); FGFR2α(IIIb); FGFR2α(IIIc); FGFR3α(IIIc); FGFR4) and were obtained from R&D Systems (Minneapolis, Minn.). The BrdU assay was performed according to the manufacturer's specifications (Roche Molecular Biochemicals, Indianapolis, Ind.) using a 4 h BrdU incorporation time.

[4] = Serum phosphate levels after CG53135-05 treatment, Rhesus monkey model; assay type: in vivo; settings: slow bolus i.v. once daily, 1, 10 mg/kg, dose-dependent (FIG. 2)
Experimental: as §3, §4

OK cells = test: Phosphate uptake in OK cells; assay type: cell-based, opossum; settings: at 50 ng/ml
Experimental: FIG. 8 depicts effect of FGF9 protein in phosphate transport. OK cells were treated with various concentrations of FGF9 protein and phosphate uptake was measured as noted in Example 6.
FIG. 9 depicts effect of FGF10 protein in phosphate transport. OK cells were treated with various concentrations of FGF10 protein and phosphate uptake was measured as noted in Example 6.
Measurement of phosphate transport is performed in cultured renal proximal tubular epithelial cell line using opossum kidney (OK) cells, in the presence of FGF-20 (CG53135-05). Briefly, OK cells are grown at 37° C. in Dulbecco's modified Eagle's medium with 10% fetal calf serum and seeded in multi-well dishes (6, 24, 96 well dishes). The phosphate uptake in OK cells is determined according to the method described by Hafdi et al (Biochem. J. 1996, 320:615-621).
Role of FGF9 and FGF10 in phosphate uptake was measured by the method described in Biochem. J. 1996, 320:615-621.

Question: For `COc1cccc(-c2cc(=O)c3ccccc3o2)c1N` [PD098059], which “cellular proliferation (3H thymidine incorporation)” value (Caco2 cells [1]) is on record?
Answer: decrease in cellular proliferation

Question: Which “cellular proliferation (3H thymidine incorporation)” value (Caco2 cells [1]) does the source give for `C[S+]([O-])c1ccc(-c2nc(-c3ccncc3)c(-c3ccc(F)cc3)[nH]2)cc1` (stereo not drawn) [SB203580] here?
Answer: decrease in cellular proliferation

Question: Which C-Fos expression (HT-29 cells) does the source give for “CG53135-05: Recombinant human fibroblast growth factor 20 produced in E. coli; Swiss-Prot Q9NP95; SEQ ID NO:1” here?
Answer: induced

Question: And the C-Jun expression (HT-29 cells)?
Answer: induced

Question: What about the serum phosphate levels [2] of the same molecule?
Answer: Statistically significant reductions

Question: What about the “expression of other kinases tested” value (Caco2 cells [3]; 100 ng/ml, 10, 30, 60 mins) of the same molecule?
Answer: no other kinase tested, showed any significant induction

Question: And the “phosphorylated MAPK (p-p38MAPK) expression” value (Caco2 cells [3]; 100 ng/ml, 10, 30, 60 mins)?
Answer: induced

Question: And the “expression of phosphorylated ATF-2” value (Caco2 cells [3]; 100 ng/ml, 10, 30, 60 minutes)?
Answer: increased expression

Question: What about the “expression of phosphorylated Elk-1” value (Caco2 cells [3]; 100 ng/ml, 10, 30, 60 minutes) of the same molecule?
Answer: increased expression

Question: What about the “expression of phosphorylated Protein Kinase C” value (Caco2 cells [3]; 100 ng/ml, 10, 30, 60 minutes) of the same molecule?
Answer: minimal induction

Question: What about the “amount of ligand needed to generate a half maximal BrdU response” value (“amount of ligand needed” for short) (NIH 3T3 cells) of the same molecule?
Answer: 10 ng/mL

Question: What about the serum phosphate levels [4] of the same molecule?
Answer: Statistically significant reductions

Question: Which “amount of ligand needed” value (NIH 3T3 cells) does the source give for “aFGF: positive control protein; factor known to interact with all of the FGFR's under analysis [reference compound]” here?
Answer: 5 ng/mL

B1: PDGF-BB: platelet derived growth factor-BB, negative control protein (protein, UniProt P01127 82-190, looked up)
Platelet-derived growth …: SLGSLTIAEPAMIAECKTRTEVFEISRRLIDRTNANFLVWPPCVEVQRCSGCCNNRNVQCRPTQVQLRPVQVRKIEIVRKKPIFKKATVTLEDHLACKCETVAAARPVT
modifications: homodimer
notes: platelet derived growth factor-BB, negative control protein
Question: With B1 as the molecule, how does the “amount of ligand needed” value (NIH 3T3 cells) read?
Answer: 3 ng/mL

B2: FGF10: human FGF 10 protein, Swiss-Prot Accession No: O15520 (protein, UniProt O15520 38-208, looked up)
Fibroblast growth factor 10: QALGQDMVSPEATNSSSSSFSSPSSAGRHVRSYNHLQGDVRWRKLFSFTKYFLKIEKNGKVSGTKKENCPYSILEITSVEIGVVAVKAINSNYYLAMNKKGKLYGSKEFNNDCKLKERIEENGYNTYASFNWQHNGRQMYVALNGKGAPRRGQKTRRKNTSAHFLPMVVHS
Question: With B2 as the molecule, how does the phosphate transport (OK cells) read?
Answer: more efficient in inhibiting the phosphate transport
